# Experimental data published in article PMC8062851, “2-Methoxyestradiol and its derivatives inhibit store-operated Ca^2+ entry in T cells: Identification of a new and potent inhibitor” (Biochimica et Biophysica Acta. Molecular Cell Research, 2021).
# Columns and labels:
# SOCE in H1299 cells = assay: SOCE inhibition, Ca2+ free/Ca2+ re-addition protocol in H1299 cells; type: cell-based, human; settings: 10 μM
# Experimental: Jurkat T-lymphocytes were cultured in RPMI 1640 medium containing 25 mM HEPES and GlutaMAX-1 (Gibco, Life Technologies), supplemented with 7.5% (v/v) newborn calf serum (NCS) (Biochrom, Merck Millipore), 100 U/ml penicillin and streptomycin (standard JMP medium). Cell density was kept between 0.3 and 1.2 ∗ 10^6 cells/ml. H1299 cells were cultured in DMEM (Dulbecco's modified Eagle's medium; Gibco, Life Technologies) supplemented with 10% (v/v) (FCS) (Biochrom, Merck Millipore), 4 mM L-glutamine, 100 μg/ml streptomycin, and 100 units/ml penicillin.
# Jurkat T-lymphocytes, primary human CD4^+ T cells and H1299 cells were pelleted at 450 ×g for 5 min, rat TMBP at 300 ×g for 8 min at room temperature and were resuspended in 1 ml of either standard JMP medium (Jurkat, H1299 and human CD4^+ T cells) or standard DMEM based medium containing 10% fetal bovine serum (FBS) (v/v) (TMBP cells). […]
# (§1) 10^6 Jurkat T-lymphocytes, H1299 cells, TMBP cells or 4*10^6 primary human CD4^+ T cells were added into a 10 × 10 mm quartz glass cuvette (Hellma Analytics, Germany) that was placed into a fluorescence spectrophotometer (F-2710, Hitachi, Japan). […] Fluorescence intensity was measured at an emission wavelength of 495 ± 5 nm for both excitation wavelengths.
# SOCE in rat TMBP cells = assay: SOCE inhibition, Ca2+ free/Ca2+ re-addition protocol in primary rat TMBP cells; type: cell-based
# Experimental: Jurkat T-lymphocytes, primary human CD4^+ T cells and H1299 cells were pelleted at 450 ×g for 5 min, rat TMBP at 300 ×g for 8 min at room temperature and were resuspended in 1 ml of either standard JMP medium (Jurkat, H1299 and human CD4^+ T cells) or standard DMEM based medium containing 10% fetal bovine serum (FBS) (v/v) (TMBP cells). Resting TMBP cells (day 5–7 after re-stimulation) after the second to fifth re-stimulation were thawed from liquid nitrogen 12 to 40 h prior to Fura2-loading. After pre-incubation for 5 min at 37 °C, cells were incubated with 4 μM Fura2-AM for 15 min at 37 °C. After addition of the dye, cells were kept in the dark. Afterwards, cells and the dye were diluted by addition of 4 ml standard medium and incubated for another 15 min. Cells were washed twice in Ca^2+ buffer (140 mM NaCl, 5 mM KCl, 1 mM MgSO4, 1 mM CaCl2, 1 mM NaH2PO4, 20 mM HEPES, 5.5 mM glucose; pH 7.4 (NaOH), sterile filtered) and were diluted to a concentration of 2*10^6 cells/ml. […]
# as §1, with “wavelengths. […]” for “wavelengths.”
smiles,measurement,setting,value
"CCc1cc2c(cc1OS(N)(=O)=O)CC[C@@H]1[C@@H]2CC[C@]2(C)[C@@H](CC#N)CC[C@@H]12 [STX564, 2-ethyl-3-sulfamoyloxy-17β-cyanomethylestra-1,3,5(10)-triene]",SOCE inhibition,SOCE in H1299 cells,significantly inhibited
same,IC50,SOCE in rat TMBP cells,800 nM
